Values joined by “and” are separate entries in the source; they are usually repeats but may differ in a detail not shown here. Equal entries are not always repeated.
What was measured:
[1] = tested on: ADAMTS-13; assay: Cleavage of recombinant A1-A2-A3 vWF fragment by ADAMTS-13 (Western Blot); type: biochemical, human; details: 10 μg/ml; normal pool plasma
Method: In a second type of experiment, different reaction mixtures were prepared as summarized in table 60, however, without the addition of the A1A2A3 construct. The A1A2A3 construct is a recombinant fragment consisting out of the A1, A2 and A3 domain of vWF. Mixtures were pre-incubated for 5 minutes at 37° C. after which the A1A2A3 fragment is added and the mixture is incubated in a waterbath overnight at 37° C. […] The blot was blocked for 2 hours at room temperature with blockbuffer (1:1 Odyssey blockbuffer in 1×TBS pH=7.4) and incubated with Rabbit polyclonal anti-vWF (DAKO). Alexa Fluor 680 goat anti-rabbit was used for detection. Scanning was done on the ODYSSEY to detect the degradation products.
In a second assay, a recombinant fragment containing the A1-A2-A3 domain of vWF was mixed with normal pool plasma (NPP) containing ADAMTS-13, resulting in proteolytic cleavage of the fragment which was observed by a Western Blot analysis.

[2] = tested on: cyclic flow reductions (CFRs) in injured, stenosed femoral artery; assay: Folts model in baboons: Aspegic-Heparin-Plavix combination with ALX-0081 on top; type: in vivo, baboon (Papio ursinus)
Method: Extra Heparin was administered at different time points to sustain a certain level (aPTT should be at least doubled versus control). […] The anti-thrombotic effect was quantified by comparing the length of CFRs before and after drug administration. When full inhibition of CFRs was observed, a new injury was applied. Epinephrin was injected and continued till the end of the experiment. […] (1), 3, 10 or 30 μg/kg. […] The specifications of the baboons that were used in this study are represented in table 49.

[3] = tested on: ADAMTS-13; assay: Cleavage of ULvWF platelet strings by ADAMTS-13 (perfusion assay); type: cell-based, human
Method: ADAMTS-13 reduces the size of large and ultralarge VWF multimers to smaller forms by specifically cleaving the Y842/M843 peptide bond in the VWF A2 domain.
In a first experiment, strings were generated by a 4 minute perfusion of washed platelets resuspended in buffer over histamine-stimulated endothelial cells. Subsequently, the non-adhered platelets were washed away by a 4 minute perfusion of buffer. After that, buffer was perfused for an other 4 minutes, followed by a 4 minute perfusion of pooled normal plasma containing ADAMTS-13. Detachment of the platelet strings was observed after perfusion of pooled normal plasma (FIG. 43). More than 95% of the strings were cleaved after the 4 minute perfusion.
In a next experiment, strings were generated by a 4 minute perfusion of washed platelets resuspended in buffer over histamine-stimulated endothelial cells and the non-adhered platelets were washed away by a 4 minute perfusion of buffer as above.

[4] = tested on: cyclic flow reductions (CFRs) in injured, stenosed femoral artery; assay: Folts thrombosis model in baboons: length/inhibition of cyclic flow reductions (CFRs); type: in vivo, baboon (Papio ursinus); details: for Length of CFRs: individual baboons 16-24; for effective dose: Folts model
Method: The study protocol that was applied is the original Folts model and some modifications described below (Folts J D, et al, Circulation. 1976; 54:365-370). Healthy male or female baboons (Papio ursinus) were used. The animals were 8-17 kg of weight and were disease-free for at least 2 weeks prior to use. The baboons were fed with dry standard food only. The baboons were used at different time points. […] Animals were anaesthetized and body temperature is maintained at 37° C. with a heating table. A segment of a femoral artery was dissected free from surrounding tissue. A shunt was placed between the femoral vein and femoral artery to obtain high shear rates. The mean and phasic blood flow was recorded continuously throughout the experiment. Baseline flow was recorded for 20 minutes. […] A clamp was placed over the injured site to create an external stenosis. A gradual decline in blood flow due to platelet adhesion and aggregation was observed. When flow was reduced to zero, blood flow was restored by opening the clamp to dislodge the platelet-rich thrombus. This repetitive pattern of decreasing blood flow following mechanical restoration is referred to as cyclic flow reductions (CFRs). Additional endothelial injury was repeated if needed to finally obtain stable CFRs in these baboons. The number of times the thrombus needed to be dislodged determines the number of CFRs. FIG. 24 illustrates blood flow pattern during the Folts model in baboons. […] This procedure was repeated for several times with escalating doses of the test substance. The anti-thrombotic effect was quantified by comparing the length of CFRs before and after drug administration. When full inhibition of CFRs was observed, a new injury was applied in order to confirm that the inhibition was an effect of the treatment but not of a natural healing phenomenon.

[5] = number of experiments with inhibition / total number of independent repeats

Question: “ALX-0081: ALX-0081 (SEQ ID NO:98), Nanobody; humanised bivalent nanobody with the 3a linker” was tested. Which “effect on the cleavage of the A1-A2-A3 vWF fragment by ADAMTS-13” value [1] did it give?
Answer: no effect

Question: And the “CFRs upon a new injury” value ([2]; at the effective dose of ALX-0081 on top of the combination)?
Answer: the CFRs did not return

Question: And the “dose at which full inhibition of the CFRs was obtained” value ([2]; on top of Aspegic, Heparin, Plavix, continued Epinephrin infusion, all seven baboons)?
Answer: 30 µg/kg

Question: And the “Length of CFRs” value ([2]; on top of Aspegic/Heparin/Plavix combination: Epinephrin + effective dose ALX-0081, individual baboons 4-10)?
Answer: >1800 s

Question: What about the “effect on the cleavage of ULvWF strings by ADAMTS-13” value ([3]; ALX-0081 10 μg/ml) of the same substance?
Answer: does not have an effect

Question: What about the “strings cleaved after the 4 minute perfusion of pooled normal plasma” value ([3]; ALX-0081 10 μg/ml (10-fold molar excess over vWF)) of the same substance?
Answer: 95%

Question: What about the “Length of CFRs” value ([4]; ALX-0081-treated, after Epinephrin) of the same substance?
Answer: >1200 s (2×) and >900 s (7×)

Question: And the “Length of CFRs” value ([4]; ALX-0081 final dose 3 μg/kg)?
Answer: 295 s and 193 s and 144 s and 133 s and 183 s and 312 s and 112 s

Question: What about the “Length of CFRs” value ([4]; ALX-0081 final dose 13 μg/kg) of the same substance?
Answer: 380 s and 913 s and >1800 s (2×) and 298 s and 237 s and 620 s and 525 s and 213 s

Question: What about the “Length of CFRs” value ([4]; ALX-0081 final dose 43 μg/kg) of the same substance?
Answer: >1800 s

Question: And the “Length of CFRs” value ([4]; ALX-0081 final dose 133 μg/kg)?
Answer: >1800 s

Question: And the effective dose [4]?
Answer: 30 µg/kg

Question: And the effective dose ([4]; inhibition of CFRs, final dose, ALX-0081: + […] dose/kg/hour)?
Answer: 13-43 μg/kg +

Question: What about the “final dose at which full inhibition of CFRs was obtained” value ([4]; all baboons (nine)) of the same substance?
Answer: 43 µg/kg

Question: And the “dose at which full inhibition of CFRs was obtained” value ([4]; all baboons (nine), bolus followed by 45 μg/kg/hour infusion)?
Answer: 30 µg/kg

Question: What about the “dose at which full inhibition of CFRs was already obtained” value ([4]; baboons 17 and 22, bolus followed by 15 μg/kg/hour infusion) of the same substance?
Answer: 10 µg/kg

Question: What about the “CFRs upon a new injury” value ([4]; new injury applied at full inhibition of CFRs) of the same substance?
Answer: Inhibition was retained

Question: What about the “Inhibition of CFRs” value [4, 5] of the same substance?
Answer: 9/9

Question: What about the “Inhibition of CFRs after administration of Epinephrin” value [4, 5] of the same substance?
Answer: 9/9

Question: And the “Inhibition of CFRs after new injury” value [4, 5]?
Answer: 9/9

— patent publication US7807162B2, “Single domain VHH antibodies against von Willebrand factor” (Ablynx N.V., priority 2005, dated 2010)
